In EP0833161A1, “Method for maintaining a continuously-saturated level of ascorbic acid in a patient's body” (Ordman, Alfred B., priority 1996, dated 1998):

How the values were obtained:
[1] = Effect of twice-daily doses of vitamin C on urinary output (DCIP assay); format: in vivo, human; settings: for urinary excretion: one individual
Experimental: Twice-daily doses of 500 mg were sufficient to elevate vitamin C in the urine continuously as shown for 5 individuals in Fig. 4.
(§1) Vitamin C was assayed by the 2,6-dichlorophenolindophenol (DCIP) assay (see Omaye, T. S. et al. "Selected Methods for the Determination of Ascorbic Acid in Animal Cells," in Methods Enzymol.: Vitamins and Coenzymes, Vol. 62, edited by McCormick, D. B. and L. D. Wright, New York, Academic Press, 1979, pp. 3-11). Samples diluted to 0-40 µg ascorbic acid with 5% phosphoric acid were assayed in a citrate/acetate buffer by reaction with DCIP, and the color at 520 nm compared with standards. Samples were assayed in duplicate and each experiment was repeated.
In order to achieve such sustained presence of vitamin C in urine, it is instead necessary to take it at least twice daily, as shown in Fig. 3. Different dosages (from 0.25 to 2.0 grams) of vitamin C were administered to a representative subject every 12 hours, at times 0 and 12 hour in the figure, on four separate days of a four week period. The mass of vitamin C present in the urine was measured at every micturition. The individual was tested one day of the week for four consecutive weeks with progressively increasing dosages followed by six-day periods of rest. As illustrated by the figure, taking at least 500 mg twice daily led to continuously elevated levels of vitamin C in the urine tested.
Each micturition during the entire 24 hours was collected and the total mass of vitamin C excreted by each subject was measured by the DCIP assay. In yet another experiment, two daily doses of 0.5 grams of vitamin C were taken daily for 8 days, then no pills were taken for a week, and then 0.5 g daily were taken again for another 8 days. Each micturition during the first and last 24 hr of each 8 day period was collected and assayed to determine the total mass of vitamin C excreted.

[2] = Rate of urinary excretion of a single daily dose of vitamin C, every micturition assayed (DCIP assay); format: in vivo, human
Experimental: In order to determine how rapidly vitamin C is excreted, several individuals took 2 grams of vitamin C daily (single dose) for 8 consecutive days, and collected samples and measured the volume of every micturition during the first and last day. The experiment was repeated with the same individuals after a seven-day rest. Each sample was analyzed to determine the time period, concentration range, and total urinary excretion of vitamin C. The results arc shown in Fig. 2 for three representative individuals. Vitamin C concentration in the urine increased after 4 hours from time of intake and remained elevated for a total of 12 hours, consistent with the hypothesis that vitamin C levels in the body are not elevated for an entire 24 hour period by a single daily dose.
as §1
Fig. 2 illustrates the effect of two grams of daily single-dose vitamin C taken orally for eight days, followed by six days with no intake, and then by eight more days of two grams taken daily in a single dose. Each micturition during the first and last 24 hours of each eight-day period was collected and assayed to determine the total mass of vitamin C excreted. Figures 2a-2c represent excretion from three different individuals.

[3] = Effect of single daily dose of vitamin C on total 24-hour urinary excretion (DCIP assay); format: in vivo, human
Experimental: In order to determine how daily dosages related to total excretion and whether high daily doses would alter the rate of excretion after a week, groups of test subjects took either 0, 0.25, 1, or 2 gram doses of vitamin C at 8 am daily for 8 consecutive days. All urine was collected and pooled on day 1 and on day 8. The concentration was assayed and the total amount of vitamin C excreted during the 24-hour period was determined, as shown in Fig. 1.
as §1
Vitamin C was administered daily to five individuals at 8 am for eight consecutive days. All urine for each individual was collected during the first and last 24-hour periods and the total amount of vitamin C excreted in the urine was determined by DCIP assay.

[4] = 500 mg dose, average person, within the first 12 hr after ingestion; cited from earlier work

## O=C1O[C@H]([C@@H](O)CO)C(O)=C1O [vitamin C, ascorbic acid]
[1]; 250 mg every 12 hours
  urinary excretion: did not cause detectable excretion in amounts exceeding normal quantities
[1]; 500 mg or higher (up to 2000 mg) every 12 hours
  urinary excretion: continuously-detectable elevated levels of excretion
[1]; 500 mg twice daily for a week, first and last day
  vitamin C in the urine: remains continuously elevated
[2]; 2 grams daily, single dose
  share of ingested vitamin C detected in the urine: only a small percentage
[2]; 2 grams daily, single dose, 8 consecutive days
  excretion pattern, first versus last day: No noticeable difference
[2]; in vivo
  time from intake after which vitamin C concentration in the urine increased: 4 h
  total time vitamin C concentration in the urine remained elevated: 12 h
[3]; 0, 0.25, 1 or 2 gram doses at 8 am daily, 24-hour pooled urine
  rate of urinary excretion versus daily dose: increased with increasing daily doses
[3]; in vivo
  intake rate at which a consistently elevated urinary level (greater than SD) begins: 250-500 mg per day
  one-time dose necessary for detectable excretion: 500 mg
  vitamin C levels in urine: no detectable vitamin C levels in urine
[3]; single daily dose for 8 consecutive days, 24-hour pooled urine
  amount excreted on day 8 compared with day 1: similar
[4]
  fraction of dose absorbed into the body: about 60%
